Conditions in all cases: Compound concentration 1000.0 nM
Test [1] concerns the target Calcium/calmodulin-dependent protein kinase type 1 (Homo sapiens) (UniProt Q14012).
Test [2] has as its target Serine/threonine-protein kinase DCLK2 (Homo sapiens) (UniProt Q8N568).
In test [3] the target is Mitogen-activated protein kinase 4 (Homo sapiens) (UniProt P31152).
Test [4] addresses Vascular endothelial growth factor receptor 3 (Homo sapiens) (UniProt P35916).
Test [5] addresses Tyrosine-protein kinase FRK (Homo sapiens) (UniProt P42685).
The target of test [6] is T1, G protein-coupled receptor kinase 3 (Homo sapiens) (UniProt P35626).
T1 sequence (whole entry): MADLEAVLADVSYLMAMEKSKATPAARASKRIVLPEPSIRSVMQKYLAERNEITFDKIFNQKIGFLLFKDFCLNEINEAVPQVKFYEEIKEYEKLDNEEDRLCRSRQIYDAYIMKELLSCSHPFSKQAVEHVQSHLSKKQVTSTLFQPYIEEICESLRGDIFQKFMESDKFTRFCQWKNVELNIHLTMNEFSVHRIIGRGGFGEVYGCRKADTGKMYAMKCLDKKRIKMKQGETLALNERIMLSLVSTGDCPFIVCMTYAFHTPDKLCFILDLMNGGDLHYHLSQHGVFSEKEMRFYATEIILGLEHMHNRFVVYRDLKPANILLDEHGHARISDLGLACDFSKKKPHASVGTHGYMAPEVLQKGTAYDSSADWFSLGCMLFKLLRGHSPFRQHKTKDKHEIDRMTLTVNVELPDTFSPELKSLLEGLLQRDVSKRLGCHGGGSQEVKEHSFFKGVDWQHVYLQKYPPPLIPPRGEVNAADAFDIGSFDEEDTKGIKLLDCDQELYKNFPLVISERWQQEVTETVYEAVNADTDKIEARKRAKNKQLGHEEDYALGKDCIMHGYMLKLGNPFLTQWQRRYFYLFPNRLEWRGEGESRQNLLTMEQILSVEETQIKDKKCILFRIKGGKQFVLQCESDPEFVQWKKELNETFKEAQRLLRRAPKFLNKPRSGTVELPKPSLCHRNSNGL

The target of test [7] is Interleukin-1 receptor-associated kinase 3 (Homo sapiens) (UniProt Q9Y616).
Sequence of Interleukin-1 receptor-associated kinase 3 (Homo sapiens) (Q9Y616 whole entry): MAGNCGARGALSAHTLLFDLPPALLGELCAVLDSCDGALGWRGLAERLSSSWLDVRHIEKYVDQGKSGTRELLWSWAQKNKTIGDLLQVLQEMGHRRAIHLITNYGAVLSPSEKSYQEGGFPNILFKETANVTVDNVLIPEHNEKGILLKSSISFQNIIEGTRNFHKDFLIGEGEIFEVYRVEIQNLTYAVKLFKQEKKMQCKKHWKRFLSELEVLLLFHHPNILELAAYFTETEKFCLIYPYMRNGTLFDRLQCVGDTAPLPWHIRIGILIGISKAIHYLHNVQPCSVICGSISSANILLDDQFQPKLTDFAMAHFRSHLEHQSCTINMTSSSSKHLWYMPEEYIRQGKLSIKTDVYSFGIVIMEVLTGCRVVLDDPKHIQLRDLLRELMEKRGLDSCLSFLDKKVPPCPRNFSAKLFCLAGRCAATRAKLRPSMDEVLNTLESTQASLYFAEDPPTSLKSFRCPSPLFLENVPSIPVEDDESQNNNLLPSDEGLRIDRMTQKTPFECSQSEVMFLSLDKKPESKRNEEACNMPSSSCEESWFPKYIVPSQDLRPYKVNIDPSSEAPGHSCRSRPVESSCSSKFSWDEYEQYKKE
Test [8] addresses Mitogen-activated protein kinase kinase kinase 15 (Homo sapiens) (UniProt Q6ZN16).
Test [9] addresses Serine/threonine-protein kinase MRCK beta (Homo sapiens) (UniProt Q9Y5S2).
Test [10] addresses Mitogen-activated protein kinase 11 (Homo sapiens) (UniProt Q15759).
Test [11] deals with Phosphatidylinositol 4,5-bisphosphate 3-kinase catalytic subunit beta isoform (Homo sapiens) (UniProt P42338).
The target in test [12] is Serine/threonine-protein kinase N1 (Homo sapiens) (UniProt Q16512).
Sequence of Serine/threonine-protein kinase N1 (Homo sapiens) (Q16512 2-942 limits assumed): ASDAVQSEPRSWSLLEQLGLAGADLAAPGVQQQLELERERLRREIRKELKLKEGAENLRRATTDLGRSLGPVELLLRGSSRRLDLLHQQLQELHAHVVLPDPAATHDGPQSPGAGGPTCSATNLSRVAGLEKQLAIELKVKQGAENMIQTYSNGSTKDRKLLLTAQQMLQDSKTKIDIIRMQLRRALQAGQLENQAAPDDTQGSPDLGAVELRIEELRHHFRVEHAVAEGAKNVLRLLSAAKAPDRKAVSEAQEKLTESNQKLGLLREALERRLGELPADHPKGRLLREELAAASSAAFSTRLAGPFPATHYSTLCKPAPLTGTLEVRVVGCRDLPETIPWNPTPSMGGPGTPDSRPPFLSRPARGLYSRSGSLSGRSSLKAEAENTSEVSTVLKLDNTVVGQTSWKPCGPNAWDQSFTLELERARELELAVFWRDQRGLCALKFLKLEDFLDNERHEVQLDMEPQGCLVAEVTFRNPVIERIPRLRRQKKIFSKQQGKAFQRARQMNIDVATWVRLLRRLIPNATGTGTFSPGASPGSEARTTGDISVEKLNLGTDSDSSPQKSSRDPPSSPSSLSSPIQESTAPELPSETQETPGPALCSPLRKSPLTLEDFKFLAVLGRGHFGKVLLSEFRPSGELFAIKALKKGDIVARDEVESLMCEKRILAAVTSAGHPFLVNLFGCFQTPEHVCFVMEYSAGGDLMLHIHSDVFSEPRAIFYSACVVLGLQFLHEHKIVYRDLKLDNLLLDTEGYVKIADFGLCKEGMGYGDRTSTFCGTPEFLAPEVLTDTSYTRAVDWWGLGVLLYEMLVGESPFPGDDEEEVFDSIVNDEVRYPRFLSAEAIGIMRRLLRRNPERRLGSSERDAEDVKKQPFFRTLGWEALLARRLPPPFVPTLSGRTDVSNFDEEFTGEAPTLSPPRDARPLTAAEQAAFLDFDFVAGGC
For test [13], the target named is Protein kinase C delta type (Homo sapiens) (UniProt Q05655).
Test [14] has as its target Non-receptor tyrosine-protein kinase TNK1 (Homo sapiens) (UniProt Q13470).
The target of test [15] is T2, Serine/threonine-protein kinase ULK1 (Homo sapiens) (UniProt O75385).
T2 sequence (whole entry): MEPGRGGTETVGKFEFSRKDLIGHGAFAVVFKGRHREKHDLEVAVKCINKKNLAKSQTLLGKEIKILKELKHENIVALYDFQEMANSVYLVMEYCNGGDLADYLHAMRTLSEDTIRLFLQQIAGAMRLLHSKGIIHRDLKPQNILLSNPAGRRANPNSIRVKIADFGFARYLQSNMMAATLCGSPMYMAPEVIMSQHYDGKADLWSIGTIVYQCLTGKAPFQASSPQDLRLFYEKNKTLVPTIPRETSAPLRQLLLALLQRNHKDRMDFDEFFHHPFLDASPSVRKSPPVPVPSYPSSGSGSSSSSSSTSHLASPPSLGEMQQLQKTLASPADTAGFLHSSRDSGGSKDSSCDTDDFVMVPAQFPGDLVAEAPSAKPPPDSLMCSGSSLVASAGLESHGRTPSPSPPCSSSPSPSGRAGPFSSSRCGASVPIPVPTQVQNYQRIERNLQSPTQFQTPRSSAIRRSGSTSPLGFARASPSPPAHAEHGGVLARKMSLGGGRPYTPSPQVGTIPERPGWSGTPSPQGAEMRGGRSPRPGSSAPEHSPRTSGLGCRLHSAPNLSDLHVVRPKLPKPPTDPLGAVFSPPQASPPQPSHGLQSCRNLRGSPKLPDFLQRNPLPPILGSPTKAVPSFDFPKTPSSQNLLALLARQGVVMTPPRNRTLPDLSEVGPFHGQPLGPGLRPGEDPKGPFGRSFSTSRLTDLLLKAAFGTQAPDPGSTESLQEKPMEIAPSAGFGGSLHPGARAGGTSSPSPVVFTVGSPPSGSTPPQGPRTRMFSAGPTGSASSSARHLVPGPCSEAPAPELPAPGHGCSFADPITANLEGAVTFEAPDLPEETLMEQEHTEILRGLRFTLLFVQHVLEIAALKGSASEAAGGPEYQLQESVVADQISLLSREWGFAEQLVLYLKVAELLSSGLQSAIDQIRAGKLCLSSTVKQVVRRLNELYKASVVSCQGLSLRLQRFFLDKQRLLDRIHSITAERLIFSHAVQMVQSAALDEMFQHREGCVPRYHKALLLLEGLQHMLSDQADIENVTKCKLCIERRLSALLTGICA

Test [16] has as its target Serine/threonine-protein kinase 32B (Homo sapiens) (UniProt Q9NY57).

Sequence of Vascular endothelial growth factor receptor 3 (Homo sapiens) (P35916 whole entry): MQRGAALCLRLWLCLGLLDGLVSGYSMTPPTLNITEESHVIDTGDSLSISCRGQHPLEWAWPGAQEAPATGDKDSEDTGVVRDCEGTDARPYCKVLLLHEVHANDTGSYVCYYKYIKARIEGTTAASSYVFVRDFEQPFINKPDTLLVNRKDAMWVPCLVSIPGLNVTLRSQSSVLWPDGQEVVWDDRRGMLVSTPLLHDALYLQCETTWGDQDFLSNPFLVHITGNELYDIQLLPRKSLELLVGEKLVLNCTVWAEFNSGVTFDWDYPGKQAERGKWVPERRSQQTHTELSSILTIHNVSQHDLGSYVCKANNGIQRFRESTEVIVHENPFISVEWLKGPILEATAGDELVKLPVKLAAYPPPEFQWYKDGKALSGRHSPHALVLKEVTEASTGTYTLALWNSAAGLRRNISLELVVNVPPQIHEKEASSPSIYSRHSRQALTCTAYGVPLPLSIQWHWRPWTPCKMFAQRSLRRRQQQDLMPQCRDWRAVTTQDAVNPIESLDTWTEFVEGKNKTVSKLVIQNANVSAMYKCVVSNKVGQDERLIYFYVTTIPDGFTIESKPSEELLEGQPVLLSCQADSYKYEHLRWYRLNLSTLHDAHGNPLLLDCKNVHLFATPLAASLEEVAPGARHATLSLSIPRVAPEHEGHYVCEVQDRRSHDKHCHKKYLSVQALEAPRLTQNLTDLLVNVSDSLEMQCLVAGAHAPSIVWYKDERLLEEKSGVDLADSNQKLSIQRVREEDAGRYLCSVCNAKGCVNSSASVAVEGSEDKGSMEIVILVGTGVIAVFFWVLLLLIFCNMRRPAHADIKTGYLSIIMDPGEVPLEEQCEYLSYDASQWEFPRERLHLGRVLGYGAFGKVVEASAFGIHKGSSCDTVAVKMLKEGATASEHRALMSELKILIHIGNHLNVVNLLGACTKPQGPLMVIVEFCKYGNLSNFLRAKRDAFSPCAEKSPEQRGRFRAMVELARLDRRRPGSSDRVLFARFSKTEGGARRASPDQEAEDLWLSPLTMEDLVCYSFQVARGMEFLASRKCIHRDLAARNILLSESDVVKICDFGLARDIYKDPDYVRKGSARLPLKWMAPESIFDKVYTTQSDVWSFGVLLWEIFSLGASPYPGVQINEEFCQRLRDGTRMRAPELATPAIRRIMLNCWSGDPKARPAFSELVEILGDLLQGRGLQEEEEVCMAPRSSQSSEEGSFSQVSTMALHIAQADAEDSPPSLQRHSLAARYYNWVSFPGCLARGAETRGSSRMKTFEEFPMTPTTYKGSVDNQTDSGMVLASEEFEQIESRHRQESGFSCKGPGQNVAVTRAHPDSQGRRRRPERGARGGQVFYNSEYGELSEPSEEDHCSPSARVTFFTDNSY
Sequence of Tyrosine-protein kinase FRK (Homo sapiens) (P42685 whole entry): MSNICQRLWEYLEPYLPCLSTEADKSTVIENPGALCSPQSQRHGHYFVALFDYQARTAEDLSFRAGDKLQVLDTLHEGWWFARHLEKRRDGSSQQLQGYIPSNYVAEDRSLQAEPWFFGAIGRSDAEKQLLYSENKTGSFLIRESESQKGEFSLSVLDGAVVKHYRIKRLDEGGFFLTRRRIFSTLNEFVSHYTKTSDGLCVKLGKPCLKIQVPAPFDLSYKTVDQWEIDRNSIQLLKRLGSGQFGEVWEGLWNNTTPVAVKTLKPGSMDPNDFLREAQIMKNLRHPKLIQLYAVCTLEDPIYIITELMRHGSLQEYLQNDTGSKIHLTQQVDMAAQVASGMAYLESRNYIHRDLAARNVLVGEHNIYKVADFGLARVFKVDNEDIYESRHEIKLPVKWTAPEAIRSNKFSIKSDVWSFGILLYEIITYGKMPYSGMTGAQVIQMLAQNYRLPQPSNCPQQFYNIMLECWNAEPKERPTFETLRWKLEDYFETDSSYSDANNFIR
Sequence of Serine/threonine-protein kinase 32B (Homo sapiens) (Q9NY57 whole entry): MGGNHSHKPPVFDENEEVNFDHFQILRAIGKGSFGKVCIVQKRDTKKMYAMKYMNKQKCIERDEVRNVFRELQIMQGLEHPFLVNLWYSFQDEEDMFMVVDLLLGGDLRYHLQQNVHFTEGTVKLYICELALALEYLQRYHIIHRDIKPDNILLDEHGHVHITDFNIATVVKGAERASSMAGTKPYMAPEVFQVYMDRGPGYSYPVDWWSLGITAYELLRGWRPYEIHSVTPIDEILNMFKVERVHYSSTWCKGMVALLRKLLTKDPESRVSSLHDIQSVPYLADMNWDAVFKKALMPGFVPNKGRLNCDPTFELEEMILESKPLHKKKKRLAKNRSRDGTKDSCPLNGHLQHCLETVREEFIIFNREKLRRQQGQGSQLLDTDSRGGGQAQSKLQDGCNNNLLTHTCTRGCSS
Sequence of Calcium/calmodulin-dependent protein kinase type 1 (Homo sapiens) (Q14012 whole entry, looked up): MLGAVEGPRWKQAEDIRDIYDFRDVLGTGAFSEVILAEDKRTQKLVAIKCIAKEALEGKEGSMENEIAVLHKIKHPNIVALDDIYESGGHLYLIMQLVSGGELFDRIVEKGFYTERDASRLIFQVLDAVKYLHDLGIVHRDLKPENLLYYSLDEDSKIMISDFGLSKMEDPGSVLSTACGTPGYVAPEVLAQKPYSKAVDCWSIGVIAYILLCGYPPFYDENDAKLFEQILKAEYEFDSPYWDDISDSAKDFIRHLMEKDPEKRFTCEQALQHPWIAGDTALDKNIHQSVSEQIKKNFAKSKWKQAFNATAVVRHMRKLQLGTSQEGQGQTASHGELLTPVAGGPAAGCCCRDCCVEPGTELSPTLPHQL
Sequence of Serine/threonine-protein kinase DCLK2 (Homo sapiens) (Q8N568 whole entry): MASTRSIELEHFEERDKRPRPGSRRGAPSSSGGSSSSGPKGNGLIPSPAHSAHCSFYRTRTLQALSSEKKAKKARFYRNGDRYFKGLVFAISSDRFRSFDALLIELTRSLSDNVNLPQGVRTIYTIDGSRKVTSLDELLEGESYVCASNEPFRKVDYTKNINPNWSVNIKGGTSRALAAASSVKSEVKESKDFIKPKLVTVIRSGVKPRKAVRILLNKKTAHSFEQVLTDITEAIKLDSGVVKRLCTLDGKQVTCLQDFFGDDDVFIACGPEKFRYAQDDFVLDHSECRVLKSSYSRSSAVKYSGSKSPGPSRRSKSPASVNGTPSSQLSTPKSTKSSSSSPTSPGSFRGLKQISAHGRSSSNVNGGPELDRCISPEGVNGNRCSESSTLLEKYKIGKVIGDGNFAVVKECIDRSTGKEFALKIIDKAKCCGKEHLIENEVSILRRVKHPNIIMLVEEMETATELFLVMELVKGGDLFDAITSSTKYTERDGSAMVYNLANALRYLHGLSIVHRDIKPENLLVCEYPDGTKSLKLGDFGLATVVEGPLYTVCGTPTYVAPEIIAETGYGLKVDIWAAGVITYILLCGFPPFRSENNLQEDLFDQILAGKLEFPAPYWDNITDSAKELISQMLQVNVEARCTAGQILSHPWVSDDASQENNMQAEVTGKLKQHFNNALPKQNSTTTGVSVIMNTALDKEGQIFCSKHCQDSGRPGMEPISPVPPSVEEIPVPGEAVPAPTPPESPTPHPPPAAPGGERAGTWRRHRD

Take `CCc1ccccc1C(=O)Nc1n[nH]c2c(C)c(F)c(C3C(C#N)=C(C)N(C)C(C)=C3C#N)cc12` [BAY-3827]: the residual activity was 76% in test [1]; 64% in test [2]; 96% in [3]; 85% in [4]; 100% in test [5]; 100% in test [6]. For the same compound, the residual activity in test [7] was 98%; in [8], 96%; in test [9], 100%; in test [10] it was 91%; in test [11] it was 100%; in test [12], 100%. The residual activity was 55% in [13], 100% in [14], 29% in test [15] and 98% in [16].
As for `CC1=C(C#N)C(c2ccc3c(c2)c(NC(=O)c2ccccc2C)nn3C)C(C#N)=C(C)N1` [BAY-974], the residual activity in [1] was 98%; in [2], 100%; in test [3] it was 100%; in [4], 100%; in test [5], 100%; in test [6], 93%. The residual activity in test [7] was 79%; in test [8] it was 96%; in test [9] it was 100%; in test [10], 100%; in test [11] it was 86%; in test [12] it was 78%. For the same compound, the residual activity in test [13] was 100%; in test [14] it was 76%; in test [15] it was 86%; in test [16], 100%.

The record behind these values is ChEMBL document CHEMBL4507319 (2021).
